In patent publication US5306620A, “Antibodies that bind to a ligand-induced binding site on integrin and induce integrin activation” (The Scripps Research Institute, priority 1990, dated 1994):
Residues, ends and D or L forms follow the SMILES beside them.

Tests used:
[1] = tested on: αIIb β3 and αv β3; experiment: Peptide ligand recognition by recombinant β3 integrins; type: binding, human
[2] = target: T1, GPIIb-IIIa on platelets (Homo sapiens, UniProt P05106+P08514); experiment: 125I-anti-LIBS1 binding to washed platelets with peptide ligands; conditions: peptide 0.8 mM; stimulated and unstimulated platelets
T1 construct: endogenous in cells; host or cells: platelets
Description: FIG. 2 illustrates anti-LIBS1 binding to platelets expressing a cryptic antigenic determinant as described in Example 5. Varied concentrations of ^125 I-anti-LIBS1 were bound at 37 C. for 30 minutes to gel-filtered platelets in the presence of no peptide (inverted triangle), 0.8 mM GRGESP (squares), 0.8 mM GRGDSP (triangles) or GRGDSP and 10 uM ADP (circles). Bound radioactivity was separated from free by spinning the platelets through a layer of sucrose.
Washed platelets were isolated as described in Example 1A, and were resuspended in 2 ml of calcium-free Tyrode's buffer (0.13 M NaCl, 0.0026 M KCl 0.002M MgCl2. 6H2 O, 5 mM Hepes, 0.012 M NaHCO3, pH 7.2) which was first treated by admixture with Chelex 100 (200-400 mesh sodium form, Bio-Rad Laboratories, Richmond, Calif.), maintained to complex any divalent cations present in the Tyrode's buffer and filtered to remove the complexed divalent cations from the buffer. The platelet suspension was then applied to a Sepharose CL2B column (40 ml total bed volume, Pharmacia, Inc., Piscataway, N.J.) equilibrated with the same Tyrode's buffer. […] The label containing immunoreaction products were then separated from non-bound ^125 I-labeled antibody by centrifugation of the platelet aliquot through a sucrose cushion as described in Example 4, and the platelet-associated radioactivity was determined as before.

[3] = target: T2, αIIb β3 on A5 cells (Homo sapiens, UniProt P05106+P08514); experiment: Soluble 125I-fibrinogen binding to A5 cells; type: cell-based
T2 construct: expressed in transfected cells
Description: FIG. 4 illustrates the equilibrium binding of soluble fibrinogen (Fg) to Ab-62 stimulated (activated) A5 cells when measured as in Example 10. A5 cells at a concentration of 10^6 per ml were admixed with 6 uM of Sepharose-purified AB-62 and maintained at 22 C. for 30 minutes to activate the integrin. Iodinated Fg was then admixed in varying concentrations from 0.01 to 1 nM. After a 60 minute maintenance period, the bound ligand was separated from free ligand by centrifugation through 0.3 ml of 20% sucrose. The amount of radiolabelled ligand associated with the cell pellet was determined by gamma detection. Saturable binding was measured in three different experiments and plotted versus the input Fg concentration to obtain an averaged profile. A Scatchard replot of the binding data was made and is shown in the insert.
An independent measure of integrin activation was made by detecting the ability of a cell containing the integrin to bind soluble fibrinogen (Fg) that had been labelled with ^125 I. Fg was isolated and labelled with ^125 I by standard methods as described by Marguerie et al., J. Biol. Chem., 255:154-161 (1980) to form ^125 I-Fg. Thereafter, the binding of ^125 I-Fg to transfected cells was assayed as described previously for platelets [Marguerie et al., J. Biol. Chem., 255:154-161 (1980)]. Binding was initiated by the addition of cells to radiolabelled Fg and incubation at 37 degrees for 30 minutes. Bound ligand was separated from free ligand by centrifugation through 0.3 ml of 20% sucrose and the amount of radiolabelled ligand associated with the cell pellet determined by gamma detection.
Background binding in this assay detected about 30,000 molecules of Fg bound per integrin bearing cell, whereas maximum Ab-62 stimulated A5 cells bound about 95,000 molecules of Fg per cell.
Equilibrium binding of soluble Fg to Ab-62 stimulated (activated) A5 cells was carried out to better characterize Fg binding. […] A5 cells (10^6 per ml) were incubated with 6 uM Sepharose-purified Ab-62 for 30 minutes at 22 C. to activate the integrin. Thereafter ^125 I-Fg was admixed in varying concentrations from 0.01 to 1 nM. After 60 minutes, bound Fg was measured as described above after centrifugation of the cells through sucrose.
Saturable binding was measured in three different experiments and plotted versus the input Fg concentration to obtain average data which is shown in FIG. 4. A Scatchard replot of the binding data was also made and is shown in the inset to FIG. 4. The binding of the various concentrations of Fg to activated A5 cells at steady state was analyzed by use of the "Ligand" computer program. […] There was day to day variation in the quantity of αIIb β3 expressed as measured by the binding of the 2G12 antibody (150,000 to 440,000 sites/cell) as well as in the number of Fg receptors (138,000 to 360,000 sites/cell). The ratio of Fg receptors to αIIb β3 expressed per cell on a given day was 0.83±0.05, thus virtually all of the recombinant αIIb β3 was functional with respect to Fg binding.

[4] = target: T2, αIIb β3 on A5 cells; experiment: Binding of fibrinogen-coated fluorescent beads to A5 cells; type: cell-based; conditions: 2 mM peptide
Description: Immobilized Fg was prepared by coating […] fluorescent latex beads (Fluoricon Fluorescent Particles, Baxter, McGraw Park, Ill.). These beads were prepared by incubating 1 mg of purified Fg with 650 ul of Fluoricon beads for 1 hour at room temperature. The beads were pelleted, resuspended in 1 ml of 30 mM Tris pH 7.4, 170 mM NaCl and 1% BSA, and stored at 4 degrees until ready for use. The binding of these particles to transfected cells was assessed by incubating 5×10^5 cells with 25 ul of beads in the presence or absence of polypeptide inhibitors for 30 minutes at room temperature. The solution was layered over a 6% BSA cushion, spun 5 minutes in a microfuge and the pelleted cells resuspended in 500 ul of Tyrodes and subjected to FACS analysis as described in Example 7.

[5] = target: T3, solubilized αIIb β3 from platelets (Homo sapiens, UniProt P05106+P08514); experiment: Solution phase assay: 125I-Fg binding to solubilized αIIb β3; type: biochemical
T3 construct: αIIb β3 was solubilized from platelets; endogenous in cells; host or cells: human platelets, octylglucoside lysate
Description: To determine if activating antibodies could activate αIIb β3 extracted away f rom the membrane milieu, the activating capacity to stimulate Fg binding in a solution phase was assayed. In this assay, αIIb β3 was solubilized from platelets, incubated in the presence or absence of activating monoclonal antibodies, and then bound to microtiter plates coated with a non-activating monoclonal anti β3 antibody.
The platelet pellet was resuspended and solubilized in ice cold 10 mM Hepes containing 150 mM NaCl, 50 mM octyl-B-D-glucoypyranoside (Calbiochem, La Jolla, Calif.) 1 mm PMSF, 50 ng/ml PGE, 1 mM CaCl2, 1 mM MgCl2, 50 uM leupeptin and 1 mg/ml N-ethylmaleimide (Sigma, St. Louis, Mo.) and centrifuged at 100,000 g for 30 minutes. […] The microtiter wells were incubated at 4 C. overnight, washed twice with a modified Tyrodes-Hepes buffer (2.5 mM Hepes, 150 mM NaCl, 2.5 mM KCl, 1 mM MgCl2, 12 mM NaHCO3, 5.5 mM D-glucose and 1 mg/ml BSA, pH 7.4) containing 50 MM octyl-B-D-glucopyranoside and 0.1 uM activating monoclonal antibody and then twice in Tyrodes-Hepes buffer only to form αIIb β3 -bound microtiter wells. […] Bound radioactivity was counted after 2 washes with Tyrodes-Hepes buffer.

T2 sequence (P08514 32-887 limits assumed): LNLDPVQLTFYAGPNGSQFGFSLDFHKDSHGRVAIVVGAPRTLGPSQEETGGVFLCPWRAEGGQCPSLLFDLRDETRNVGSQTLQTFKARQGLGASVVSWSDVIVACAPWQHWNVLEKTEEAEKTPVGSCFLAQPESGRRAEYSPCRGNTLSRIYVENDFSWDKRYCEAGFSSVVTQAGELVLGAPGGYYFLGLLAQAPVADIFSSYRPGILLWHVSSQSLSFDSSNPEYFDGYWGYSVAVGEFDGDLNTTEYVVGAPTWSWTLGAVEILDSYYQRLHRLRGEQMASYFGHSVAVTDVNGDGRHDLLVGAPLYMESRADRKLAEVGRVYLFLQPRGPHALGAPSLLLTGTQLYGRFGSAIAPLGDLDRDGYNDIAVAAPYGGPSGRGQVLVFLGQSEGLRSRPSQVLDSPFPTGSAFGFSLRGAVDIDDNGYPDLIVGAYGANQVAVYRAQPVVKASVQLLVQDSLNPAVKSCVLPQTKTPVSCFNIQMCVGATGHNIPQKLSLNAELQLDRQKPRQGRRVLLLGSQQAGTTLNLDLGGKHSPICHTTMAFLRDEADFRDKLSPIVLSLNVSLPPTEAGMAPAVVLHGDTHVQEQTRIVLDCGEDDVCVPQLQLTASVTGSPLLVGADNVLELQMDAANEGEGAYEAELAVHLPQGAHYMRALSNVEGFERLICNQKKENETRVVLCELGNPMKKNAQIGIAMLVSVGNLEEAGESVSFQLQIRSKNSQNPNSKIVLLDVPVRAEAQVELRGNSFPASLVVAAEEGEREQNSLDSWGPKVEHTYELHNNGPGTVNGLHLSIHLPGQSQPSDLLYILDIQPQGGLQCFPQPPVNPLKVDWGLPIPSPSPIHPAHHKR
T2 sequence (P08514 891-1039 partner limits assumed): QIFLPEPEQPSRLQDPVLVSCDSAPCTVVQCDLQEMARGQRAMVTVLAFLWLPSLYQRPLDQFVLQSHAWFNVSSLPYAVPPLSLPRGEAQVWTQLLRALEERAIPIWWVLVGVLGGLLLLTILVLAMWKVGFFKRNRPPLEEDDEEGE
T2 sequence (P05106 27-788): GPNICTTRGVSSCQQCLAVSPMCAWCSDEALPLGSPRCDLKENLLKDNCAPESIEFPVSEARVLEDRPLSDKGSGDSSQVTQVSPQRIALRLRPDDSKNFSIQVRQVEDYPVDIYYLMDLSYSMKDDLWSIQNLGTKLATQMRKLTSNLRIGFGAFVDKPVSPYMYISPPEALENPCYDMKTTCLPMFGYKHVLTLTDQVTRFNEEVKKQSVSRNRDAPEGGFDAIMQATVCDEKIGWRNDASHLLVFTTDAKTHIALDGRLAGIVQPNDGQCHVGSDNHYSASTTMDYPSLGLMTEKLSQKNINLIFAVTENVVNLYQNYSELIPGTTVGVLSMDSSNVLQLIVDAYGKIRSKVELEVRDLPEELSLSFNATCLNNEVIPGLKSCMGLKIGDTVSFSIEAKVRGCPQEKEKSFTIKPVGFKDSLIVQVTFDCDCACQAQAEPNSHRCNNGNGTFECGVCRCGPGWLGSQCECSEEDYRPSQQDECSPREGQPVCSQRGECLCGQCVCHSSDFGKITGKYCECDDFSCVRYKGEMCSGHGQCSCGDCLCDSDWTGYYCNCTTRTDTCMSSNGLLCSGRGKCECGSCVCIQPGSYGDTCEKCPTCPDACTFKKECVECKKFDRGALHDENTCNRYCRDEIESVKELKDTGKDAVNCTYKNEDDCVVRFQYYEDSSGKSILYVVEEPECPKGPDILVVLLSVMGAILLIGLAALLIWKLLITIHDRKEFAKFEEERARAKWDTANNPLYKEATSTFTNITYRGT
T1 sequence (P08514 32-887 limits assumed): as the sequence (P08514 32-887 limits assumed) above
T1 sequence (P08514 891-1039 partner limits assumed): as the sequence (P08514 891-1039 partner limits assumed) above
T1 sequence (P05106 27-788): as the sequence (P05106 27-788) above
T3 sequence (P08514 32-887 limits assumed): as the sequence (P08514 32-887 limits assumed) above
T3 sequence (P08514 891-1039 partner limits assumed): as the sequence (P08514 891-1039 partner limits assumed) above
T3 sequence (P05106 27-788): as the sequence (P05106 27-788) above

Row | Structure (SMILES) | recognition of peptide by αIIb β3 versus αv β3 [1] | induction of LIBS1 cryptic antigenic determinant on platelets by peptide ligand [2] | inhibition of soluble 125I-Fg binding to activated A5 cells [3] | adherence of A5 cells to Fg-coated microspheres [4] | inhibition of Fg binding to stimulated captured receptor [5]
1 | CC(C)C[C@H](N)C(=O)NCC(=O)NCC(=O)N[C@@H](C)C(=O)N[C@@H](CCCCN)C(=O)N[C@@H](CCC(N)=O)C(=O)N[C@@H](C)C(=O)NCC(=O)N[C@@H](CC(=O)O)C(=O)N[C@H](C(=O)O)C(C)C [Mab L10, LGGAKQAGDV] (H-LGGAKQAGDV-OH) | recognized better by αIIb β3 than by αv β3 | – | – | – | –
2 | N=C(N)NCCC[C@H](NC(=O)CN)C(=O)NCC(=O)N[C@@H](CC(=O)O)C(=O)N[C@@H](CO)C(=O)N1CCC[C@H]1C(=O)O [GRGDSP, Gly-Arg-Gly-Asp-Ser-Pro] | – | will express a LIBS1 cryptic antigenic determinant | inhibited | inhibited | inhibition
